# In the NIST ThermoML archive (doi:10.1021/je034153o):
# “And” between values parts separate entries of the source, which are not always exact repeats. Equal entries are not always repeated. Numbers after ± are expanded uncertainties.
# Settings: 303.15 K; Liquid; Closed cell (Static) method
row,SMILES,vapor or sublimation pressure
1,ClC(Cl)Cl [trichloromethane],32.41 ± 0.13 kPa
2,ClCCl [dichloromethane],70.49 ± 0.27 kPa
3,ClC(Cl)(Cl)Cl [tetrachloromethane],18.83 ± 0.083 kPa
4,CCOCCO [2-ethoxyethan-1-ol],0.981 ± 0.017 kPa and 0.984 ± 0.017 kPa and 0.968 ± 0.017 kPa
